Assay results reported in US20050124497A1, “Delta1-pyrrolines and their use as pest control agents” (priority 2002, published 2005).

tested on: not listed separately; experiment: log P by HPLC (reversed-phase C18), acidic range pH 2.3; assay type: physicochemical; conditions: reversed-phase C18 HPLC column; pH 2.3, 0.1% aqueous phosphoric acid/acetonitrile, 43° C.
Procedure: The log P values given in the Tables and Preparation Examples above are determined in accordance with EEC Directive 79/831 Annex V.A8 by HPLC (High Performance Liquid Chromatography) using a reversed-phase column (C 18). Temperature: 43° C.
The determination in the acidic range is carried out at pH 2.3 using the mobile phases 0.1% aqueous phosphoric acid and acetonitrile; linear gradient from 10% acetonitrile to 90% acetonitrile. In the Tables, the values are marked a).
Calibration is carried out using unbranched alkan-2-ones (of 3 to 16 carbon atoms) with known log P values (determination of the log P values by retention times using linear interpolation between two successive alkanones).

chromatographic logP | Compound
3.53 | Fc1ccc2nc(-c3ccc(C4CCC(c5c(F)cccc5F)=N4)cc3)oc2c1 (stereo not shown) [Example 5, 2-{4-[5-(2,6-difluorophenyl)-3,4-dihydro-2H-pyrrol-2-yl]phenyl}-6-fluoro-1,3-benzoxazole]
4.98 | Fc1cccc(F)c1C1=NC(c2ccc(-c3nc4cc(SC(F)(F)F)ccc4o3)cc2)CC1 (stereo not shown) [Example 2]
3.22 | CC(C)(C)c1ccc(O)c(NC(=O)c2ccc(C3CCC(c4c(F)cccc4F)=N3)cc2)c1 (stereo not shown) [II-1, N-(5-tert-btyl-2-hydroxyphenyl)-4-[5-(2,6-difluorohenyl)-3,4-dihydro-2H-pyrrol-2-yl]benzamide]
5.11 | CC(C)(C)c1ccc2oc(-c3ccc(C4CCC(c5c(F)cccc5F)=N4)cc3)nc2c1 (stereo not shown) [Example 1, 5-tert-butyl-2-{4-[5-(2,6-difluorophenyl)-3,4-dihydro-2H-pyrrol-2-yl]phenyl}-1,3-benzoxazole]
2.06 | Fc1cccc(F)c1C1=NC(c2ccc(-c3nc4ncccc4o3)cc2)CC1 (stereo not shown) [Example 4, 2-{4-[5-(2,6-difluorophenyl)-3,4-dihydro-2H-pyrrol-2-yl]-phenyl}[1,3]oxazole[4,5-b]pyridine]
1.16 | O=C(Nc1ncccc1O)c1ccc(C2CCC(c3c(F)cccc3F)=N2)cc1 (stereo not shown) [II-4, 4-[5-(2,6-difluorophenyl)-3,4-dihydro-2H-pyrrol-2-yl]-N-(3-hydroxy-2-pyridinyl)benzamide]

Compound | chromatographic logP
Fc1cccc(F)c1C1=NC(c2ccc(-c3nc4ccccc4o3)cc2)CC1 (stereo not shown) [Example 3, 2-{4-[5-(2,6-difluorophenyl)-3,4-dihydro-2H-pyrrol-2-yl]phenyl}-1,3-benzoxazole] | 3.22

tested on: Heliothis armigera caterpillars; experiment: Heliothis armigera test; assay type: in vivo; conditions: 100 ppm active compound, soya bean shoots dipped, kill after 7 d
Procedure: Solvent: 7 parts by weight of dimethylformamide
Emulsifier: 2 parts by weight of alkylaryl polyglycol ether
(§1) To produce a suitable preparation of active compound, 1 part by weight of active compound is mixed with the stated amounts of solvent and emulsifier, and the concentrate is diluted with emulsifier-containing water to the desired concentration.
Soya bean shoots (Glycine max) are treated by being dipped into the preparation of active compound of the desired concentration and are populated with Heliothis armigera caterpillars while the leaves are still moist.
(§2) After the desired period of time, the kill in % is determined. 100% means that all caterpillars have been killed; 0% means that none of the caterpillars have been killed.

Compound | Efficacy in % after 7 d [%]
Fc1cccc(F)c1C1=NC(c2ccc(-c3nc4cc(C(F)(F)F)c(Cl)cc4o3)cc2)CC1 (stereo not shown) [drawing 27] | 100
Fc1cccc(F)c1C1=NC(c2ccc(-c3nc4cc(OC(F)(F)F)ccc4o3)cc2)CC1 (stereo not shown) [drawing 28] | 100
Fc1cccc(F)c1C1=NC(c2ccc(-c3nc4cc(Br)ccc4o3)cc2)CC1 (stereo not shown) [drawing 33] | 100
Fc1cc(-c2nc3cc(OC(F)(F)F)ccc3o2)ccc1C1CCC(c2c(F)cccc2F)=N1 (stereo not shown) [drawing 30] | 100
Fc1cccc(F)c1C1=NC(c2ccc(-c3nc4cc(C(F)(F)F)ccc4s3)cc2)CC1 (stereo not shown) [drawing 32] | 100
Fc1cccc(F)c1C1=NC(c2ccc(-c3nc4cc(-c5ccccc5)ccc4o3)cc2)CC1 (stereo not shown) [drawing 29] | 100
Fc1cc(-c2nc3cc(Cl)ccc3o2)ccc1C1CCC(c2c(F)cccc2F)=N1 (stereo not shown) [drawing 31] | 100

tested on: Meloidogyne incognita egg/larvae suspension; experiment: Meloidogyne test; assay type: in vivo; conditions: 20 ppm active compound, lettuce in sand, nematicidal action by gall formation
Procedure: To produce a suitable preparation of active compound, 1 part by weight of active compound is mixed with the stated amounts of solvent and emulsifier, and the concentrate is diluted with water to the desired concentration.
Containers are filled with sand, solution of active compound, Meloidogyne incognita egg/larvae suspension and lettuce seeds. The lettuce seeds germinate and the plants develop. On the roots, galls are formed.
After the desired period of time, the nematicidal action is determined in % by gall formation. 100% means that no galls were found; 0% means that the number of galls on the treated plants corresponds to that of the untreated control.

Compound | Efficacy in % after 7 d [%]
Fc1cccc(F)c1C1=NC(c2ccc(-c3nc4ccccc4s3)cc2)CC1 (stereo not shown) [drawing 35] | 80
Cc1cc2oc(-c3ccc(C4CCC(c5c(F)cccc5F)=N4)cc3)nc2c(C)c1Cl (stereo not shown) | 98
O=C(Nc1ncccc1O)c1ccc(C2CCC(c3c(F)cccc3F)=N2)cc1 (stereo not shown) [drawing 34] | 95
Fc1cccc(F)c1C1=NC(c2ccc(-c3nc4cc(Br)ccc4o3)cc2)CC1 (stereo not shown) [drawing 38] | 80
CNS(=O)(=O)c1cc2oc(-c3ccc(C4CCC(c5c(F)cccc5F)=N4)cc3)nc2cc1Cl (stereo not shown) | 80

tested on: larvae of the mustard beetle (Phaedon cochleariae); experiment: Phaedon larvae test; assay type: in vivo; conditions: 100 ppm active compound, cabbage leaves dipped, kill after 7 d
Procedure: Phaedon Larvae Test [table] To produce a suitable preparation of active compound, 1 part by weight of active compound is mixed with the stated amounts of solvent and emulsifier, and the concentrate is diluted with emulsifier-containing water to the desired concentration. Cabbage leaves (Brassica oleracea) are treated by being dipped into the preparation of active compound of the desired concentration and are populated with larvae of the mustard beetle (Phaedon cochleariae) while the leaves are still moist.

Compound | Efficacy in % after 7 d [%]
Fc1cc(-c2nc3cc(OC(F)(F)F)ccc3o2)ccc1C1CCC(c2c(F)cccc2F)=N1 (stereo not shown) [drawing 44] | 100
Fc1cc(-c2nc3cc(-c4ccccc4)ccc3o2)ccc1C1CCC(c2c(F)cccc2F)=N1 (stereo not shown) [drawing 45] | 100
Fc1cccc(F)c1C1=NC(c2ccc(-c3nc4cc(OC(F)(F)F)ccc4o3)cc2)CC1 (stereo not shown) [drawing 42] | 100
Fc1cccc(F)c1C1=NC(c2ccc(-c3nc4cc(-c5ccccc5)ccc4o3)cc2)CC1 (stereo not shown) [drawing 43] | 100
Fc1cccc(F)c1C1=NC(c2ccc(-c3nc4cc(C(F)(F)F)c(Cl)cc4o3)cc2)CC1 (stereo not shown) [drawing 41] | 100

same assay, conditions: 500 ppm active compound, cabbage leaves dipped, kill after 7 d

Compound | Efficacy in % after 7 d [%]
Fc1cccc(F)c1C1=NC(c2ccc(-c3nc4cc(SC(F)(F)F)ccc4o3)cc2)CC1 (stereo not shown) [drawing 40] | 100
CC(C)(C)c1ccc2oc(-c3ccc(C4CCC(c5c(F)cccc5F)=N4)cc3)nc2c1 (stereo not shown) [drawing 39] | 100

tested on: caterpillars of the armyworm (Spodoptera exigua); experiment: Spodoptera exigua test; assay type: in vivo; conditions: 100 ppm active compound, cabbage leaves dipped, kill after 7 d
Procedure: as §1
Cabbage leaves (Brassica oleracea) are treated by being dipped into the preparation of active compound of the desired concentration and are populated with caterpillars of the armyworm (Spodoptera exigua) while the leaves are still moist.
as §2

Compound | Efficacy in % after 7 d [%]
Fc1cc(-c2nc3cc(-c4ccccc4)ccc3o2)ccc1C1CCC(c2c(F)cccc2F)=N1 (stereo not shown) [drawing 47] | 100

tested on: caterpillars of the armyworm (Spodoptera frugiperda); experiment: Spodoptera frugiperda test; assay type: in vivo; conditions: 168 h, 100 ppm active compound, cabbage leaves dipped, kill after 7 d, read-out: Efficacy in % after 7 d
Procedure: Spodoptera Frugiperda Test
as §1
Cabbage leaves (Brassica oleracea) are treated by being dipped into the preparation of active compound of the desired concentration and are populated with caterpillars of the armyworm (Spodoptera frugiperda) while the leaves are still moist.
as §2

Compound | pest or weed control at 100 ppm [%]
Cc1ccccc1C1=NC(c2ccc(-c3nc4ccccc4o3)cc2)CC1 (stereo not shown) | 100
Fc1cccc(F)c1C1=NC(c2ccc(-c3nc4cc(Cl)ccc4o3)cc2)CC1 (stereo not shown) | 100
Fc1cc(-c2nc3cc(Cl)ccc3o2)ccc1C1CCC(c2c(F)cccc2F)=N1 (stereo not shown) [drawing 59] | 100
Fc1cccc(F)c1C1=NC(c2ccc(-c3nc4cc(Cl)cc(Cl)c4o3)cc2)CC1 (stereo not shown) | 100
Fc1cccc(F)c1C1=NC(c2ccc(-c3nc4cc(C(F)(F)F)ccc4s3)cc2)CC1 (stereo not shown) [drawing 60] | 100
CN(C)S(=O)(=O)c1cc2oc(-c3ccc(C4CCC(c5c(F)cccc5F)=N4)cc3)nc2cc1Cl (stereo not shown) [drawing 58] | 100

same assay, conditions: 168 h, 500 ppm active compound, cabbage leaves dipped, kill after 7 d, read-out: Efficacy in % after 7 d

Compound | pest or weed control at 500 ppm [%]
CC(C)(C)c1ccc2oc(-c3ccc(C4CCC(c5c(F)cccc5F)=N4)cc3)nc2c1 (stereo not shown) [drawing 50] | 100
CC(C)(C)c1ccc(O)c(NC(=O)c2ccc(C3CCC(c4c(F)cccc4F)=N3)cc2)c1 (stereo not shown) [drawing 55] | 100
Fc1cccc(F)c1C1=NC(c2ccc(-c3nc4cc(SC(F)(F)F)ccc4o3)cc2)CC1 (stereo not shown) [drawing 52] | 100
Fc1ccc2nc(-c3ccc(C4CCC(c5c(F)cccc5F)=N4)cc3)oc2c1 (stereo not shown) [drawing 54] | 100
Fc1cccc(F)c1C1=NC(c2ccc(-c3nc4ncccc4o3)cc2)CC1 (stereo not shown) [drawing 49] | 100

same assay, conditions: in Brassica oleracea, 168 h, read-out: Efficacy in % after 7 d

Compound | pest or weed control at 500 ppm [%]
O=[N+]([O-])c1cc2oc(-c3ccc(C4CCC(c5c(F)cccc5F)=N4)cc3)nc2cc1Cl (stereo not shown) | 100
Fc1cccc(F)c1C1=NC(c2ccc(-c3nc4ccccc4o3)cc2)CC1 (stereo not shown) [drawing 48] | 100

tested on: greenhouse red spider mite (Tetranychus urticae); experiment: Tetranychus test (OP-resistant/dip treatment); assay type: in vivo; conditions: 168 h, 100 ppm active compound, bean plants dipped, all stages, after 7 d, read-out: Efficacy in % after 7 d
Procedure: Tetranychus Test (OP-Resistant/Dip Treatment)
as §1
Bean plants (Phaseolus vulgaris) which are heavily infested by all stages of the greenhouse red spider mite (Tetranychus urticae) are treated by being dipped into a preparation of active compound of the desired, concentration.
After the desired period of time, the effect in % is determined. 100% means that all spider mites have been killed; 0% means that none of the spider mites have been killed.

Compound | pest or weed control at 100 ppm [%]
Fc1cc(-c2nc3ccccc3o2)ccc1C1CCC(c2c(F)cccc2F)=N1 (stereo not shown) | 95
Fc1cc(-c2nc3cc(Cl)ccc3o2)ccc1C1CCC(c2c(F)cccc2F)=N1 (stereo not shown) [drawing 67] | 95
Fc1cccc(F)c1C1=NC(c2ccc(-c3nc4cc(C(F)(F)F)cc(Cl)c4o3)cc2)CC1 (stereo not shown) | 95
Fc1cccc(F)c1C1=NC(c2ccc(-c3nc4cc(C(F)(F)F)cc(C(F)(F)F)c4o3)cc2)CC1 (stereo not shown) | 100
Fc1cccc(F)c1C1=NC(c2ccc(-c3nc4cc(C(F)(F)F)ccc4s3)cc2)CC1 (stereo not shown) [drawing 69] | 90
CN(C)S(=O)(=O)c1cc2oc(-c3ccc(C4CCC(c5c(F)cccc5F)=N4)cc3)nc2cc1Cl (stereo not shown) [drawing 64] | 90
Fc1cc(-c2nc3cc(-c4ccccc4)ccc3o2)ccc1C1CCC(c2c(F)cccc2F)=N1 (stereo not shown) [drawing 68] | 99
Fc1cccc(F)c1C1=NC(c2ccc(-c3nc4ccccc4s3)cc2)CC1 (stereo not shown) [drawing 65] | 99
Fc1cccc(F)c1C1=NC(c2ccc(-c3nc4cc(C(F)(F)F)c(Cl)cc4o3)cc2)CC1 (stereo not shown) [drawing 63] | 98
